In ChEMBL document CHEMBL1817626, “The structure-activity relationship of urea derivatives as anti-tuberculosis agents” (Bioorg Med Chem, 2011):
pIC50: −log10 of the molar value. In brackets after ≈: the same amount, converted by molar mass. Activity calls are given as the source filed them. The rule behind the calls is not given here.

What was measured:
[1] = target: T1, Bifunctional epoxide hydrolase 2 (Homo sapiens, UniProt P34913); assay: Inhibition of human recombinant soluble epoxide hydrolase using CMNPC as substrate after 10 mins by fluorescent assay
T1 sequence (P34913 whole entry): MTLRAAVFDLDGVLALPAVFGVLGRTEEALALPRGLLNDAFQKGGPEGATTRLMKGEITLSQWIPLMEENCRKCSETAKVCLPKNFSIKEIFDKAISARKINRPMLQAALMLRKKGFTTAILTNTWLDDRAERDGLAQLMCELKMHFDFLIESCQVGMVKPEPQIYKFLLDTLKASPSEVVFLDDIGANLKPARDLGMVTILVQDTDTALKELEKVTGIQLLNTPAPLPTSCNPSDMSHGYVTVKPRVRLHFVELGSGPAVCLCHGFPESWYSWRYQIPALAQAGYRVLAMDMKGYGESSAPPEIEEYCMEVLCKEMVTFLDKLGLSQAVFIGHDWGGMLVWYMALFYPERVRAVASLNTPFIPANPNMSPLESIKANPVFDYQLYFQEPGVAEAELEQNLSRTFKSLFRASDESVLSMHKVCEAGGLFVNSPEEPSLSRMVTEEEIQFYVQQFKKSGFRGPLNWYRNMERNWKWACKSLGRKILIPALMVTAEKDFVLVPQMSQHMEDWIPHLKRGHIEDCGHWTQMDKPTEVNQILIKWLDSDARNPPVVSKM

[2] = target: T2, Epoxide hydrolase B (Mycobacterium tuberculosis, UniProt P95276); assay: Inhibition of Mycobacterium tuberculosis recombinant EphB expressed in Escherichia coli BL21 using CMNPC as substrate after 30 mins by fluorescent assay relative to control
T2 sequence (P95276 whole entry): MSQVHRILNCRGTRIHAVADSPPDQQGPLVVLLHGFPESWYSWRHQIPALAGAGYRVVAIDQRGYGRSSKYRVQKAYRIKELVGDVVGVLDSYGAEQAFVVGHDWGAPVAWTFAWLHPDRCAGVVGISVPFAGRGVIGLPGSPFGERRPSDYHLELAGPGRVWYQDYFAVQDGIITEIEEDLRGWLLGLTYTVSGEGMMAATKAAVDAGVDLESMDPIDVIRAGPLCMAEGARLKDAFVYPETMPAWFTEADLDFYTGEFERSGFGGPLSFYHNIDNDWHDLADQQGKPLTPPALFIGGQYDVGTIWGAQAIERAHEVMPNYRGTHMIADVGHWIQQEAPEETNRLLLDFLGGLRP

[3] = target: T3, Hydrolase, alpha/beta hydrolase fold family (Mycobacterium tuberculosis, UniProt O69638); assay: Inhibition of Mycobacterium tuberculosis recombinant EphE expressed in Escherichia coli BL21 using CMNPC as substrate after 30 mins by fluorescent assay relative to control
T3 sequence (O69638 whole entry): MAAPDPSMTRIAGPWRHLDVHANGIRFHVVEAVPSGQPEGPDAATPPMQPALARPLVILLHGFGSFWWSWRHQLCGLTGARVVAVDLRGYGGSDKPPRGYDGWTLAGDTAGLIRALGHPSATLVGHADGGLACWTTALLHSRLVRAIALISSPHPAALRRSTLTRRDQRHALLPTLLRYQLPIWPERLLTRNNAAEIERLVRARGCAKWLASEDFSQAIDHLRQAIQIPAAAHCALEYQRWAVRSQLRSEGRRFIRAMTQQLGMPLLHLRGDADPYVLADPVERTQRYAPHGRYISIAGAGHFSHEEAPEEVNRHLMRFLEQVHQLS

[4] = tested on: Enterococcus faecium; assay: Antibacterial activity against Enterococcus faecium; assay type: functional
[5] = tested on: Klebsiella pneumoniae; assay: Antibacterial activity against Klebsiella pneumoniae; assay type: functional
[6] = tested on: Bacillus anthracis; assay: microbe, parasite or virus in culture
[7] = tested on: Enterococcus faecalis; assay: Antibacterial activity against Enterococcus faecalis; assay type: functional
[8] = tested on: Mycobacterium tuberculosis; assay: microbe, parasite or virus in culture; details: H37Rv, 168 h
[9] = tested on: Staphylococcus aureus; assay: Antibacterial activity against Staphylococcus aureus; assay type: functional
[10] = tested on: Escherichia coli; assay: Antibacterial activity against Escherichia coli […] TolC; assay type: functional
[11] = tested on: Mycolicibacterium smegmatis; assay: microbe, parasite or virus in culture; details: str. MC2 155, 168 h
[12] = tested on: Escherichia coli; assay: Antibacterial activity against Escherichia coli K12; assay type: functional; details: K-12
[13] = tested on: Pseudomonas aeruginosa; assay: Antibacterial activity against Pseudomonas aeruginosa; assay type: functional
[14] = target: T4, Epoxide hydrolase B (Mycobacterium tuberculosis) (UniProt P95276); assay: Inhibition of Mycobacterium tuberculosis recombinant EphB expressed in Escherichia coli BL21 using CMNPC as substrate at 10 nM after 30 mins by fluorescent assay relative to control
T4 sequence (whole entry): T2 sequence (P95276 whole entry)

[15] = tested on: Vero; assay: Cytotoxicity against african green monkey Vero cells after 72 hrs by MTT assay; assay type: cell-based; details: Chlorocebus sabaeus
[16] = target: T5, Hydrolase, alpha/beta hydrolase fold family (Mycobacterium tuberculosis) (UniProt O69638); assay: Inhibition of Mycobacterium tuberculosis recombinant EphE expressed in Escherichia coli BL21 using CMNPC as substrate at 10 nM after 30 mins by fluorescent assay relative to control
T5 sequence (whole entry): T3 sequence (O69638 whole entry)

Compound: CC(=O)C1CCC(NC(=O)Nc2ccc(OC(F)(F)F)cc2)CC1 (stereo not given)
- pIC50 [1]: 7.92
- pIC50 [2]: 4.50

Compound: CC(C)CCOc1ccc(NC(=S)Nc2ccc(OCCC(C)C)cc2)cc1 [TIOCARLIDE]
- pIC50 [3]: 7.66
- MIC [4]: > 200 µg/mL
- MIC [5]: > 200 µg/mL
- MIC [6]: > 200 µg/mL
- MIC [7]: > 200 µg/mL
- MIC [8]: 2.5 µg/mL (≈ 6.24 µM)
- MIC [9]: > 200 µg/mL
- MIC [10]: > 200 µg/mL
- MIC [11]: > 200 µg/mL
- MIC [12]: > 200 µg/mL
- MIC [13]: > 200 µg/mL
- inhibition [14]: inactive

Compound: CCCCCNC(=O)NC1C2CC3CC(C2)CC1C3 (stereo not given)
- MIC [4]: > 200 µg/mL
- MIC [5]: > 200 µg/mL
- MIC [6]: > 200 µg/mL
- MIC [7]: > 200 µg/mL
- MIC [8]: 0.39 µg/mL (≈ 1.47 µM)
- MIC [9]: > 200 µg/mL
- MIC [10]: > 200 µg/mL
- IC50 [15]: 11.6 µg/mL (≈ 43.9 µM)
- MIC [11]: 12.5 µg/mL (≈ 47.3 µM)
- MIC [12]: > 200 µg/mL
- pIC50 [1]: 8.19
- MIC [13]: > 200 µg/mL
- inhibition [16]: 90.5%
- inhibition [14]: 58.6%

Compound: COCCCNC(=O)NC12CC3CC(CC(C3)C1)C2
- MIC [4]: > 200 µg/mL
- MIC [5]: > 200 µg/mL
- MIC [6]: > 200 µg/mL
- MIC [7]: > 200 µg/mL
- MIC [8]: 100 µg/mL (≈ 375 µM)
- MIC [9]: > 200 µg/mL
- MIC [10]: > 200 µg/mL
- IC50 [15]: 20.4 µg/mL (≈ 76.6 µM)
- MIC [11]: 200 µg/mL (≈ 751 µM)
- MIC [12]: > 200 µg/mL
- pIC50 [1]: 6.41
- MIC [13]: > 200 µg/mL
- inhibition [16]: 35.9%
- inhibition [14]: 23.7%

Compound: Cc1ccc(NC(=O)NCc2cccc(F)c2)cc1Cl
- MIC [4]: > 200 µg/mL
- MIC [5]: > 200 µg/mL
- MIC [6]: > 200 µg/mL
- MIC [7]: > 200 µg/mL
- MIC [8]: 6 µg/mL (≈ 20.5 µM)
- MIC [9]: > 200 µg/mL
- MIC [10]: > 200 µg/mL
- IC50 [15]: 342 µg/mL (≈ 1170 µM)
- MIC [11]: > 200 µg/mL
- MIC [12]: > 200 µg/mL
- pIC50 [1]: 7.78
- MIC [13]: > 200 µg/mL
- inhibition [16]: 19%
- inhibition [14]: 18.6%

Compound: CCCCCCCNC(=O)NC1C2CC3CC(C2)CC1C3 (stereo not given)
- MIC [4]: > 200 µg/mL
- MIC [5]: > 200 µg/mL
- MIC [6]: > 200 µg/mL
- MIC [7]: > 200 µg/mL
- MIC [8]: 0.2 µg/mL (≈ 0.684 µM)
- MIC [9]: > 200 µg/mL
- MIC [10]: > 200 µg/mL
- IC50 [15]: 20 µg/mL (≈ 68.4 µM)
- MIC [11]: 1.6 µg/mL (≈ 5.47 µM)
- MIC [12]: > 200 µg/mL
- pIC50 [1]: 9.30
- MIC [13]: > 200 µg/mL
- inhibition [16]: 99.9%
- inhibition [14]: 37.1%
